ChEMBL document CHEMBL5543126, “Combinatorial Ubiquitination REal-time PROteolysis (CURE-PROs): A Modular Platform for Generating Reversible, Self-Assembling Bifunctional Targeted Degraders” (J Med Chem, 2024)
Active and inactive are the calls of the source. No cut-off for these calls is given here.

Columns and labels:
Type in all cases: cell-based
[1] = biological target: T1, von Hippel-Lindau disease tumor suppressor/Bromodomain-containing protein 4 (Homo sapiens, UniProt O60885+P40337); assay: (§1) PROTAC activity at BRD4/VHL in human MCF7 cells assessed as induction of BRD4 degradation by measuring residual activity at 3 uM incubated for 24 hrs in presence of 10 uM BRD4 based ligand ((4S)-6-(4-chlorophenyl)-4-(2-(ethylamino)-2-oxoethyl)-1-methyl4Hbenzo[f][1,2,4]triazolo [4,3-a][1,4]diazepin-8-yl)boronic acid by Western blot based Combinatorial Ubiquitination Real-time PROteolysis analysis
[2] = biological target: T1, von Hippel-Lindau disease tumor suppressor/Bromodomain-containing protein 4; assay: as §1, with “1” for “10”
[3] = biological target: T1, von Hippel-Lindau disease tumor suppressor/Bromodomain-containing protein 4; assay: as §1, with “300 nM” for “3 uM”, “100 nM” for “10 uM”
[4] = biological target: T1, von Hippel-Lindau disease tumor suppressor/Bromodomain-containing protein 4; assay: as §1, with “100 nM” for “3 uM”, “300 nM” for “10 uM”
[5] = biological target: T1, von Hippel-Lindau disease tumor suppressor/Bromodomain-containing protein 4; assay: as §1, with “30 nM” for “3 uM”, “3” for “10”
[6] = biological target: T1, von Hippel-Lindau disease tumor suppressor/Bromodomain-containing protein 4; assay: (§2) PROTAC activity at VHL/BRD4 in HEK293 cells assessed as induction of BRD4 degradation by measuring degradation rate at 0.3 uM measured every 15 mins for 24 hrs in presence of BRD4 based ligand ((4S)-6-(4-chlorophenyl)-4-(2-(ethylamino)-2-oxoethyl)-1-methyl4Hbenzo[f][1,2,4]triazolo [4,3-a][1,4]diazepin-8-yl)boronic acid by HiBiT based Combinatorial Ubiquitination Real-time PROteolysis analysis
[7] = biological target: T1, von Hippel-Lindau disease tumor suppressor/Bromodomain-containing protein 4; assay: as §1, with “30 nM” for “3 uM”, “300 nM” for “10 uM”
[8] = biological target: T1, von Hippel-Lindau disease tumor suppressor/Bromodomain-containing protein 4; assay: as §2, with “10” for “0.3”
[9] = biological target: T1, von Hippel-Lindau disease tumor suppressor/Bromodomain-containing protein 4; assay: as §1, with “100 nM” for “3 uM”, “of” for “of 10 uM”
[10] = biological target: T1, von Hippel-Lindau disease tumor suppressor/Bromodomain-containing protein 4; assay: as §2, with “measuring maximal level of” for “measuring”, “degradation” for “degradation rate”, “3” for “0.3”
[11] = biological target: T1, von Hippel-Lindau disease tumor suppressor/Bromodomain-containing protein 4; assay: as §2, with “Tmax” for “degradation rate”
[12] = biological target: T1, von Hippel-Lindau disease tumor suppressor/Bromodomain-containing protein 4; assay: as §1, with “at 10” for “at 3”, “of 300 nM” for “of 10 uM”
[13] = biological target: T1, von Hippel-Lindau disease tumor suppressor/Bromodomain-containing protein 4; assay: as §1, with “at 10” for “at 3”, “of 100 nM” for “of 10 uM”
[14] = biological target: T1, von Hippel-Lindau disease tumor suppressor/Bromodomain-containing protein 4; assay: as §2, with “measuring maximal level of” for “measuring”, “degradation” for “degradation rate”
[15] = biological target: T1, von Hippel-Lindau disease tumor suppressor/Bromodomain-containing protein 4; assay: as §2, with “measuring maximal level of” for “measuring”, “degradation” for “degradation rate”, “10” for “0.3”
[16] = biological target: T1, von Hippel-Lindau disease tumor suppressor/Bromodomain-containing protein 4; assay: (§3) PROTAC activity at VHL/BRD4 in HEK293 cells assessed as induction of BRD4 degradation by measuring maximal level of degradation at 1 uM measured every 15 mins for 24 hrs in presence of VHL based ligand (2S,4R)-1-((S)-2-(2,3-dihydroxybenzamido)-3,3-dimethylbutanoyl)-4-hydroxy-N-(4-(4-methylthiazol-5-yl)benzyl)pyrrolidine-2-carboxamide by HiBiT based Combinatorial Ubiquitination Real-time PROteolysis analysis
[17] = biological target: T1, von Hippel-Lindau disease tumor suppressor/Bromodomain-containing protein 4; assay: (§4) PROTAC activity at BRD4/VHL in human MCF7 cells assessed as induction of BRD4 degradation by measuring residual activity at 30 nM incubated for 24 hrs in presence of 10 uM VHL based ligand (2S,4R)-1-((S)-2-(2,3-dihydroxybenzamido)-3,3-dimethylbutanoyl)-4-hydroxy-N-(4-(4-methylthiazol-5-yl)benzyl)pyrrolidine-2-carboxamide by Western blot based Combinatorial Ubiquitination Real-time PROteolysis analysis
[18] = biological target: T1, von Hippel-Lindau disease tumor suppressor/Bromodomain-containing protein 4; assay: as §4, with “10 uM” for “30 nM”, “3” for “10”
[19] = biological target: T1, von Hippel-Lindau disease tumor suppressor/Bromodomain-containing protein 4; assay: as §4, with “300” for “30”, “of” for “of 10 uM”
[20] = biological target: T1, von Hippel-Lindau disease tumor suppressor/Bromodomain-containing protein 4; assay: as §4, with “300 nM” for “10 uM”
[21] = biological target: T1, von Hippel-Lindau disease tumor suppressor/Bromodomain-containing protein 4; assay: as §3, with “Tmax” for “maximal level of degradation”
[22] = biological target: Protein cereblon/Bromodomain-containing protein 4 (Homo sapiens) (UniProt O60885+Q96SW2); assay: PROTAC activity at BRD4/CRBN in human HeLa cells assessed as induction of BRD4 degradation at 10 uM incubated for 24 hrs in presence of CRBN based ligand N-((2-(2,6-dioxopiperidin-3-yl)-1,3-dioxoisoindolin-4-yl)methyl)-3,4-dihydroxybenzamide by Western blot analysis based Combinatorial Ubiquitination Real-time PROteolysis analysis
[23] = biological target: T1, von Hippel-Lindau disease tumor suppressor/Bromodomain-containing protein 4; assay: as §3, with “at 0.3” for “at 1”
[24] = biological target: T1, von Hippel-Lindau disease tumor suppressor/Bromodomain-containing protein 4; assay: PROTAC activity at VHL/BRD4 in HEK293 cells assessed as induction of BRD4 degradation by measuring degradation rate at 0.3 uM measured every 15 mins for 24 hrs in presence of VHL based ligand (2S,4R)-1-((S)-2-(2,3-dihydroxybenzamido)-3,3-dimethylbutanoyl)-4-hydroxy-N-(4-(4-methylthiazol-5-yl)benzyl)pyrrolidine-2-carboxamide by HiBiT based Combinatorial Ubiquitination Real-time PROteolysis analysis

T1 sequence (P40337 whole entry, looked up, other chains not shown): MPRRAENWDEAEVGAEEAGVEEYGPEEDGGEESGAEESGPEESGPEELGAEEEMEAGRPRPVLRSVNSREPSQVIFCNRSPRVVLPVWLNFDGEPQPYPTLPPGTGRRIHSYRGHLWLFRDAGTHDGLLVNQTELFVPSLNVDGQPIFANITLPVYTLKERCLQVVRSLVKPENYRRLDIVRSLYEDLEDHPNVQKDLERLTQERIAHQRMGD
Sequence of Protein cereblon/Bromodomain-containing protein 4 (Homo sapiens) (Q96SW2 whole entry, looked up, other chains not shown): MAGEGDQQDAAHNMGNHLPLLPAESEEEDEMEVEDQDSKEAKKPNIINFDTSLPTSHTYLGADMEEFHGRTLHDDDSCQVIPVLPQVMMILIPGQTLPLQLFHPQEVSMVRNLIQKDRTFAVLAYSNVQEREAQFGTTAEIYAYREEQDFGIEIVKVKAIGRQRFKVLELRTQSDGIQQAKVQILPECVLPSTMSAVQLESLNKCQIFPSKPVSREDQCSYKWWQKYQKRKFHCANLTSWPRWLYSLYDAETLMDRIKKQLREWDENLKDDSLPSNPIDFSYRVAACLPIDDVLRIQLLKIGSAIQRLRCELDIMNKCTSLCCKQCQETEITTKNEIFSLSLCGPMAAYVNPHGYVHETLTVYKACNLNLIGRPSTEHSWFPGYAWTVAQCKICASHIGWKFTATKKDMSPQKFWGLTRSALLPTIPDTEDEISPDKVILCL

SMILES: Cc1ncsc1-c1ccc(CNC(=O)[C@@H]2C[C@@H](O)CN2C(=O)[C@@H](NC(=O)c2cccc(O)c2O)C(C)(C)C)cc1
- Activity [1]: 16%
- Activity [2]: 32%
- Activity [3]: 72%
- Activity [4]: 77%
- Activity [5]: 90%
- Activity [6]: 0.144 h⁻¹
- Activity [7]: 104%
- Activity [8]: 4.18 h⁻¹
- Activity [9]: 89%
- Emax [10]: 93%
- Tmax [11]: 7.75 h
- Activity [12]: 48%
- Activity [13]: 55%
- Emax [14]: 47%
- Emax [15]: 96%

SMILES: CCNC(=O)C[C@@H]1N=C(c2ccc(Cl)cc2)c2cc(B(O)O)ccc2-n2c(C)nnc21
- Emax [16]: 80%
- Activity [17]: 76%
- Activity [18]: 7%
- Activity [19]: 100%
- Activity [20]: 104%
- Tmax [21]: 19.5 h
- Activity [22]: inactive
- Emax [23]: 47%
- Activity [24]: 0.144 h⁻¹
